The text below walks through data of US20220170930A1, “METHOD FOR SCREENING COMPOUND FOR TREATING OR PREVENTING POLYQ-RELATED NEURODEGENERATIVE DISEASES” (FUDAN UNIVERSITY, priority 2019, published 2022).

pKd: −log10 of the molar value.

For experiment [1], the target named is T1, full-length mHTT (flHTT-Q73) (Homo sapiens, UniProt P42858, INS38QQQQQQQQQQQQQQQQQQQQQQQQQQQQQQQQQQQQQQQQQQQQQQQQQQQQ).
T1 construct: LC3B, full-length mHTT (flHTT-Q73) and full-length HTT-Q23 (flHTT-Q23); protein A (N, cleaved yes); made in house; host or cells: human embryonic kidney E293 cells
Nature of the experiment: OI-RD affinity reaction parameters with flHTT-Q73. The class given is binding. The following applies: OI-RD, flHTT-Q73. From the text:
Each compound was printed in triplicates on the microarray. 01-RD was used to measure the affinity reaction parameters of the compound with LC3B, full-length mHTT (flHTT-Q73) and full-length HTT-Q23 (flHTT-Q23).

A further experiment concerns the target T2, HTTexon1-Q25-MBP (Homo sapiens, UniProt P42858, DUP35-38).
T2 construct: made in house; host or cells: mammalian expression vector pTT5SH8Q2
Nature of the experiment: OI-RD affinity with HTTexon1-Q25. The experiment is classed as binding. How it is done: OI-RD images before and after incubation with the target protein was obtained following the method in (1).
(§1) The difference images of the above steps (1), (2), (3) (the image after incubation minus the image before incubation) was analyzed respectively.
(§2) Each compound was printed in triplicates on the microarray. 01-RD was used to measure the affinity reaction parameters of compounds with HTTexon1-Q72 and HTTexon1-Q25.

The next experiment addresses T3, flHTT-Q73 (Homo sapiens, UniProt P42858, INS38QQQQQQQQQQQQQQQQQQQQQQQQQQQQQQQQQQQQQQQQQQQQQQQQQQQQ).
T3 construct: LC3B, full-length mHTT (flHTT-Q73) and full-length HTT-Q23 (flHTT-Q23); protein A (N, cleaved yes); made in house; host or cells: human embryonic kidney E293 cells
Nature of the experiment: MST affinity with flHTT-Q73. The class given is binding. The following applies: MST, flHTT-Q73, protein 500 nM; read-out: Kd.

For experiment [2], the target named is T4, mutant ATXN3 protein (ATXN3-Q74) (Homo sapiens, UniProt P54252, G306R/INS305QQQQQQQQQQQQQQQQQQQQQQQQQQQQQQQQQQQQQQQQQQQQQQQQQQQQQQQQQQQQQQQQ/V212M).
T4 construct: endogenous in cells; host or cells: SCA3 patient fibroblasts (Q74)
Nature of the experiment: Western-blot mutant ATXN3 level in SCA3 patient fibroblasts. The following applies: 100 nM (compound 4: 50 nM), 2 days. The class given is cell-based. How it is done:
Then the levels of mutant ATXN3 protein (ATXN3-Q74, SEQ ID NO: 2) and wild-type ATXN3 protein (ATXN3-Q27, SEQ ID NO: 7) were determined by Western-blots (FIG. 26). […] Therefore, the compound of the present invention can be used to treat SCA3.

In a further experiment the target is MBP-ATXN3-Q68 (Homo sapiens, UniProt P54252, INS305QQQQQQQQQQQQQQQQQQQQQQQQQQQQQQQQQQQQQQQQQQQQQQQQQQQQQQQQQQ). Nature of the experiment: MST affinity with MBP-ATXN3-Q68.
For experiment [3], the target named is T5, binding between HTTexon1-Q25-MBP and LC3B (Homo sapiens, UniProt Q9GZQ8).
T5 construct: His8 (N, cleaved yes); GST (from pGEX-6P1) (N, cleaved yes); made in house; LC3B: E. coli BL21(DE3)pLsyS
Nature of the experiment: In vitro pull-down HTTexon1-Q25-MBP and LC3B. The experiment is classed as biochemical. The note with it: 1 μM compound 1 or 100 nM compound 4. How it is done: Incubation was conducted. Then the unbound proteins were removed.
(3) The resin-bound proteins were eluted and analyzed by SDS-PAGE and Western-blots with anti-LC3 antibody (FIG. 22a).

A further experiment has as its target T6, mHTT (Homo sapiens, UniProt P42858, INS38QQQQQQQQQQQQQQQQQQQQQQQQQQ).
T6 construct: endogenous in cells; host or cells: HD patient iPSC-derived neurons (Q47)
Nature of the experiment: HTRF mHTT level in HD patient iPSC-derived neurons. The following applies: iPSC-derived neurons (Q47). The class given is cell-based.

The subject of experiment [4] is proteins with expanded polyglutamine (polyQ-GFP). Nature of the experiment: OI-RD affinity screening with polyQ-GFP proteins. The experiment is classed as binding. The following applies: OI-RD difference images. How it is done: To identify compound(s) that can selectively bind to proteins containing expanded polyglutamine, screening was conducted using a method similar to 1.1, except for that the target protein HTTexon1-Q72-MBP in step (1) of 1.1 was replaced with the polyQ-GFP protein prepared in 10.1, and the target protein HTTexon1-Q25-MBP in step (2) of 1.1 was replaced with GFP.

In another experiment the target is Q72-GFP. Nature of the experiment: MST affinity with Q72-GFP.
The target of another experiment is Q53-GFP. Nature of the experiment: OI-RD affinity reaction parameters with Q53-GFP. The experiment is classed as binding. The source says:
(§3) (1) PolyQ-GFP cDNA sequence (expressing Met-polyQ-GFP, wherein polyQ was Q72 or Q25) was synthesized de novo and subcloned into pcDNA vector. […] And the same method was used to obtain cells expressing Q53-GFP, cells expressing Q46-GFP, and cells expressing Q38-GFP.

A further experiment deals with T7, His-ATXN1-Q92 (Homo sapiens, UniProt P54253, INS208QQQQQQQQQQQQQQQQQQQQQQQQQQQQQQQQQQQQQQQQQQQQQQQQQQQQQQQQQQQQQQQQQQQQQQQQQQQQQQQQ).
T7 construct: made in house; host or cells: HEK293T cells (ATCC, CRL-3216)
Nature of the experiment: OI-RD affinity screening with His-ATXN1-Q92. The experiment is classed as binding. The following applies: OI-RD difference images. How it is done:
(1) PolyQ-ATXN1 cDNA (where polyQ is Q92) was synthesized de novo and subcloned into pcDNA vector. It transfected into HEK293T cells (ATCC, CRL-3216) to obtain cells expressing His-ATXN1-Q92 (SEQ ID NO: 3 with a His tag at the N-terminal).
(2) The His-ATXN1-Q92 expressed in (1) was purified to obtain ATXN1 with abnormally expanded polyQ.
To identify compound(s) that can bind to ATXN1 with abnormally expanded polyQ, screening was conducted using a method similar to step (1) of 1.1, except for that the target protein HTTexon1-Q72-MBP in step (1) of 1.1 was replaced with His-ATXN1-Q92.

In experiment [5] the test system is Q25-GFP. Nature of the experiment: MST affinity with Q25-GFP.
Method: (§4) The affinity of the compound with full-length HTT and LC3B was verified with micro thermophoresis (MST) using Monolith NT.115 instrument from NanoTemper Technologies. The reaction buffer was 20 mM HEPES, pH 7.4, 150 mM NaCl.
For experiment [6], the system named is Q25-GFP. Nature of the experiment: OI-RD affinity screening with Q25-GFP. The note with it: OI-RD difference images. The experiment is classed as binding.
Excerpt: as §3

The target in a further experiment is T8, HTTexon1-Q72-MBP (Homo sapiens, UniProt P42858, INS38QQQQQQQQQQQQQQQQQQQQQQQQQQQQQQQQQQQQQQQQQQQQQQQQQQQ).
T8 construct: made in house; host or cells: mammalian expression vector pTT5SH8Q2
Nature of the experiment: OI-RD affinity screening and affinity reaction parameters with HTTexon1-Q72. The class given is binding. How it is done:
Each compound was printed in duplicate on the microarray. The compound not fixed on the surface of the chip was washed away. The chip was sealed and cleaned. 01-RD microscope was applied to scan the images. […] The chips are cleaned and scanned.
as §1, §2

T1 sequence (P42858 with tags, fused parts or gaps with the stated changes): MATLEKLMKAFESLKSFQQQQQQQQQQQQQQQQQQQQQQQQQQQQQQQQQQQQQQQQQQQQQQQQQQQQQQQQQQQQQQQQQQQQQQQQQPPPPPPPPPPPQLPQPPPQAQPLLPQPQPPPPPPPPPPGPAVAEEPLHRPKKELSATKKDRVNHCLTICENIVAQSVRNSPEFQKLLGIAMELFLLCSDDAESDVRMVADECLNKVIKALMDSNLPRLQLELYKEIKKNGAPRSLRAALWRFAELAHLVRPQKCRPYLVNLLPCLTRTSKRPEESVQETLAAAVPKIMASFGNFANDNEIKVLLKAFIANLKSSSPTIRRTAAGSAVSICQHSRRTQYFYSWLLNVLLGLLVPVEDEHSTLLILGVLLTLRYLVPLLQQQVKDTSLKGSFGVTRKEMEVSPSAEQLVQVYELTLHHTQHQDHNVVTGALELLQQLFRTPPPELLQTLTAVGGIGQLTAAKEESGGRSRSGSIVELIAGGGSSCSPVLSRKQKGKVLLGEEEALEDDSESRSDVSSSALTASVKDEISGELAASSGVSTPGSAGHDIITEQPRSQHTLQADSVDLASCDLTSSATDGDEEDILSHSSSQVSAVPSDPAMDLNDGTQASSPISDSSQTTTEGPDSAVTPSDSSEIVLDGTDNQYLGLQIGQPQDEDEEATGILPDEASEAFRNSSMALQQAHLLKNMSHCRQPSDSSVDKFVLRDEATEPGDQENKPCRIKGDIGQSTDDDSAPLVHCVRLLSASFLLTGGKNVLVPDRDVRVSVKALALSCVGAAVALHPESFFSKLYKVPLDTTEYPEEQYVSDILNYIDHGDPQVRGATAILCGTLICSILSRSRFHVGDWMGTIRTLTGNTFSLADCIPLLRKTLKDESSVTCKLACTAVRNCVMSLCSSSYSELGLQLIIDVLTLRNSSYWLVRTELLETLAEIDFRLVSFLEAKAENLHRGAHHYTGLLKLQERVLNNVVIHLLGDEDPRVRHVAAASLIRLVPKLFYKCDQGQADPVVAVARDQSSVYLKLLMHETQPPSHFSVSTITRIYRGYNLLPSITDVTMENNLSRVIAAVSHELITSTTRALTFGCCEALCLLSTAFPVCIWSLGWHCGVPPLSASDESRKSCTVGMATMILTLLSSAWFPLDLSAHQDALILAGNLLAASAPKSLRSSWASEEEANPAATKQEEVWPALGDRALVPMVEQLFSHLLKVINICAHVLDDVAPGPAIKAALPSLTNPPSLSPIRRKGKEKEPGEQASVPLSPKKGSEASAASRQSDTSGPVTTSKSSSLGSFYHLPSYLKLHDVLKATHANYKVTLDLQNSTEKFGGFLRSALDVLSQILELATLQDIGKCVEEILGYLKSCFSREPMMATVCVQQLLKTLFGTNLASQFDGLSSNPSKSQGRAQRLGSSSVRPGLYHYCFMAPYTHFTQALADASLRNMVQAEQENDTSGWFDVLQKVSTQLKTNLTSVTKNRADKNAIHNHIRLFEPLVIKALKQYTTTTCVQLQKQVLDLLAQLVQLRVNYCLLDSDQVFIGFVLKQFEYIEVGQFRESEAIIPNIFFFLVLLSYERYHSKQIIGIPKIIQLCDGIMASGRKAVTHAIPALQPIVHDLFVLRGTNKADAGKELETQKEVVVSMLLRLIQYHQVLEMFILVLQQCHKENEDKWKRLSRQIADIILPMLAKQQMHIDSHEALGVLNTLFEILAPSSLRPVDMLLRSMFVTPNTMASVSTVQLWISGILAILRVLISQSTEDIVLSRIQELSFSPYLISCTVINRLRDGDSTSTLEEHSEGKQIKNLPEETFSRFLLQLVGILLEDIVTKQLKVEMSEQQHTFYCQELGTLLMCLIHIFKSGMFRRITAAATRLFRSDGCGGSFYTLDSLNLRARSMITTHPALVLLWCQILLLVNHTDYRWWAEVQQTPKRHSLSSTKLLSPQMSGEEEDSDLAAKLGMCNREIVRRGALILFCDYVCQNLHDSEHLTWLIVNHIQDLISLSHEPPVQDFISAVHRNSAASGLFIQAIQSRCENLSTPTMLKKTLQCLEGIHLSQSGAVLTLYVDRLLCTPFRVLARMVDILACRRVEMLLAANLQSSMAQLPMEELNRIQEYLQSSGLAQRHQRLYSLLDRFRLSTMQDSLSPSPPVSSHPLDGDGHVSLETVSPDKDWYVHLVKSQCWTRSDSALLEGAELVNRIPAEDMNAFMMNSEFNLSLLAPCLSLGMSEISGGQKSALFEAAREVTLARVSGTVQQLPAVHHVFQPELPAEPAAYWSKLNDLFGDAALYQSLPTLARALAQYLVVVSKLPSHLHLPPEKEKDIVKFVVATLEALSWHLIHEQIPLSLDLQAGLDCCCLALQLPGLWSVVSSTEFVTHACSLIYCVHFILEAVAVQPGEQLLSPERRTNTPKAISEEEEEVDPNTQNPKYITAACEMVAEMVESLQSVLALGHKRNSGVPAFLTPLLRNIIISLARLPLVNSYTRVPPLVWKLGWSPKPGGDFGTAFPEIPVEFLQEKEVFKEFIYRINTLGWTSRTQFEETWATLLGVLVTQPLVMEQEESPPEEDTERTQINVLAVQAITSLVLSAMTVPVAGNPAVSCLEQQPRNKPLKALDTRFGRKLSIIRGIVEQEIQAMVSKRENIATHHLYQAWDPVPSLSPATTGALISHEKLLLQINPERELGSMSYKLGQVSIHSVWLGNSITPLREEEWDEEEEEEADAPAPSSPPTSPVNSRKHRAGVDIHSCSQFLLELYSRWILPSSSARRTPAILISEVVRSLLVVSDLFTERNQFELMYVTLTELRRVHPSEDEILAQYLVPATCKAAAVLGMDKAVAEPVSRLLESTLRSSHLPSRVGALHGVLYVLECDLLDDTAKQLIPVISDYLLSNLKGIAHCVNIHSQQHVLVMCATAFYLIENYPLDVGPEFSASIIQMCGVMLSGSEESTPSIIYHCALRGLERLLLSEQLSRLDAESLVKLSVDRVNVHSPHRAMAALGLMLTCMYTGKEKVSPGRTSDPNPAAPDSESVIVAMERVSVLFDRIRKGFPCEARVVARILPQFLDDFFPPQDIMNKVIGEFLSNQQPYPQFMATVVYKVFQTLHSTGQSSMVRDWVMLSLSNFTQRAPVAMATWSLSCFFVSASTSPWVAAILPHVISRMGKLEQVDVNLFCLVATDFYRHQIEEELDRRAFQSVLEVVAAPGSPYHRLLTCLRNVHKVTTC
T8 sequence (P42858 with tags, fused parts or gaps, stated change not applied): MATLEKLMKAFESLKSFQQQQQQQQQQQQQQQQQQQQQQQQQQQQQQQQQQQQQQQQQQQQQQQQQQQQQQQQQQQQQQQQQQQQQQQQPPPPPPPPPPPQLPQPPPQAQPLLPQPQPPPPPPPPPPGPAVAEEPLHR
T2 sequence (P42858 with tags, fused parts or gaps DUP35-38): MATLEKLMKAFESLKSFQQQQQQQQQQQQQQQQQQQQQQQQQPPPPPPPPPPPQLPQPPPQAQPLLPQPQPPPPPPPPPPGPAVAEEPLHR
T4 sequence (P54252 with tags, fused parts or gaps isoform P54252-1 with the stated changes): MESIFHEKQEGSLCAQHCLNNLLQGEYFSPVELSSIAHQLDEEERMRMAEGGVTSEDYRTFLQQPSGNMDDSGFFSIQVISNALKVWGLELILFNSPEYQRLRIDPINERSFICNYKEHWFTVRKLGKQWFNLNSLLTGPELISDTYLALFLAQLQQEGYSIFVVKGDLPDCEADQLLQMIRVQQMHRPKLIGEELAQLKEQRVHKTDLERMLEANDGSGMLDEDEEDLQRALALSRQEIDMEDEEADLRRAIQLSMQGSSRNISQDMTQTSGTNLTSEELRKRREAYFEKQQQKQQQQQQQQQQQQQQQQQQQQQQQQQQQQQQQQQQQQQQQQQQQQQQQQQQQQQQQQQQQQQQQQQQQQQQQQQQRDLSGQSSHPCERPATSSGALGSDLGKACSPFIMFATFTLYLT
T3 sequence (P42858 with tags, fused parts or gaps with the stated changes): as the sequence (P42858 with tags, fused parts or gaps with the stated changes) above
Sequence of MBP-ATXN3-Q68 (P54252 with tags, fused parts or gaps isoform P54252-4 with the stated changes): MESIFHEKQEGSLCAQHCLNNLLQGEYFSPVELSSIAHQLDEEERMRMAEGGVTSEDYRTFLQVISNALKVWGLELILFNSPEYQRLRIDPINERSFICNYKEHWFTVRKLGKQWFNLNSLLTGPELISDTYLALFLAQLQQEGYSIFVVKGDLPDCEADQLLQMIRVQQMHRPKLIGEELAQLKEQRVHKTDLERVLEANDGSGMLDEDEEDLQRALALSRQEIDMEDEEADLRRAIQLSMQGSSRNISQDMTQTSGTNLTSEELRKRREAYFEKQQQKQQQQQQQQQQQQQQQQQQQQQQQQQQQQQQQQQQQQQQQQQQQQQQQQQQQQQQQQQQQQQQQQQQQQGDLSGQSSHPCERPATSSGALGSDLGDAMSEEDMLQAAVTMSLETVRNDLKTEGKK
Method for MBP-ATXN3-Q68: as §4
Method for Q72-GFP: as §4

As for `O=C1Nc2ccc(I)cc2/C1=C/c1cc(Br)c(O)c(Br)c1` [compound 1, GW5074], the Koff in experiment [1] is 0.00797 min⁻¹; in the experiment with Q53-GFP, 0.00378 min⁻¹; at HTTexon1-Q72-MBP (OI-RD, HTTexon1-Q72), 0.0143 min⁻¹. The Kon in [1] was 5.43e-05 min/nM; in the experiment on Q53-GFP, 0.000151 min/nM; at HTTexon1-Q72-MBP (OI-RD, HTTexon1-Q72), 9.07e-05 min/nM. The pKd (in general, the Kd on a negative log10 scale, so that one unit is a factor of ten) in experiment [1] (read-out: Kd) is 7.83; on flHTT-Q73, 5.46; on MBP-ATXN3-Q68, 5.20; on Q72-GFP, 5.52; at Q53-GFP, 7.60; on HTTexon1-Q72-MBP (OI-RD, HTTexon1-Q72, read-out: Kd) it was 6.80. Besides, at HTTexon1-Q25-MBP, the “binding to HTTexon1-Q25” value is reported as “do not bind”. Further, the “mutant ATXN3 protein level” value in experiment [2] was “A decrease in mutant ATXN3 protein level was observed”. For the same compound, the “binding between HTTexon1-Q25-MBP and LC3B” value in experiment [3] is “but not between HTTexon1-Q25-MBP and LC3B”. The mHTT levels entry at mHTT (2B7/MW1) was “Decreased mHTT levels were observed”; on mHTT (presence of the autophagy inhibitor NH4Cl), “this effect was not observed”. In experiment [4], the “binding affinity to proteins with 38 or more glutamine repeats” value is recorded as “showed certain binding affinity”. Also, the “binding to His-ATXN1-Q92” value at His-ATXN1-Q92 is reported as “can bind”. Also, in the experiment on Q25-GFP [5], the “binding affinity to Q25-GFP” value is “no binding affinity”. Also, the “binding to Q25-GFP” value with Q25-GFP [6] is reported as “did not bind”. Moreover, the “binding to HTTexon1-Q72” value at HTTexon1-Q72-MBP (OI-RD difference images) is “can bind”.
